# Literature values as cited in article PMC2885594 (Current Chemical Genomics, 2010).
# Tested on: TPH1
# Conditions: ref [30]
compound,measurement,value
N[C@@H](Cc1c[nH]c2ccc(O)cc12)C(=O)O [5-HTP],mechanism of inhibition versus phenylalanine,competitive
same,mechanism of inhibition versus pterin,uncompetitive
